How the values were obtained:
gut microbiota = assay: Mouse model of Clostridium difficile infection: shifts in microbial gut constituents (16S rRNA); assay type: in vivo, mice (female C57BL/6); details: Day 6, FIG. 13; predicted from 16S rRNA sequencing using PICRUST
Method: (§1) Mice (female C57BL/6, 8-10 weeks old, 16-18 grams each; Harlan Laboratories, Indianapolis, Ind.) were housed in groups of 3 per cage, with 4 cages per treatment group. Mice were exposed to a cocktail of antibiotics in their drinking water for a period of 9 days, starting on day −14, fourteen days before Clostridium difficile challenge on day 0. The antibiotic cocktail consisted of 1% glucose, kanamycin (0.5 mg/ml), gentamicin (0.044 mg/ml), colistin (1062.5 U/ml), metronidazole (0.269 mg/ml), ciprofloxacin (0.156 mg/ml), ampicillin (0.1 mg/ml) and vancomycin (0.056 mg/ml). Three days prior to Clostridium difficile challenge (on Day −3), mice received a single dose of clindamycin (10 mg/kg) in a volume of 0.5 mL distilled water by oral gavage (PO) (see Table 10). All chemicals were purchased from Sigma-Aldrich Corp. (St. Louis, Mo.). On day 0, mice were challenged with Clostridium difficile (strain VPI 10463 (ATCC-43255)) spores at approximately 4.5 log10 spores per mouse, PO, in a dose volume of 0.5 mL distilled water.
To determine how the gut microbiota composition responds to treatment with glycan therapeutics, 16S rRNA sequencing of fecal pellets on the V4 variable region using standard protocols from the Earth Microbiome Project was performed (www.earthmicrobiome.org/emp-standard-protocols/). […]

[1] = tested on: Clostridium difficile (strain VPI 10463 (ATCC-43255)); assay: Mouse model of Clostridium difficile infection: disease-associated phenotypes; assay type: in vivo, mice (female C57BL/6)
Method: This experiment was conducted to analyze the effects of glycan therapeutics in a mouse model of Clostridium difficile infection (Chen et al, 2008, A Mouse Model of Clostridium difficile—Associated Disease. Gastroenterology 135(6), 1984-1992). In this model, normal mice were exposed to an antibiotic regimen that renders them susceptible to C. difficile infection and disease symptoms, similar with respect to their development and manifestation of human clinical disease. In humans, the disease is most often the result of exposure to broad spectrum antibiotics which is thought to result in intestinal dysbiosis and subsequent increased colonic colonization with C. difficile. The increased bio-burden of C. difficile leads to toxin production by the bacterium and colonic inflammation. Clinical manifestations in humans include diarrhea, weight loss, intestinal inflammation, fever and dehydration. The clinical incidence of C. difficile infection and disease is about 750,000 cases per year in the US.
as §1
Disease-associated phenotypes were recorded for a duration of ten days starting on the day of Clostridium difficile challenge (on day 0) through day 10. The phenotypes, including lethargy, hunched posture and ruffled coat, wet tail/abdomen and hypothermia were scored from 0 to 4: Normal=0; Lethargic=1; Lethargic+Hunched=2; Lethargic+Hunched+Wet tail/abdomen (diarrhea)=3; and Lethargic+Hunched+Wet tail/abdomen+Hypothermic=4. Death (day 0 to day 10 or 11) and weight (day 1 to day 7 and day 10) of the animals was also monitored and recorded.
A treatment's ability to protect animals from death through day 6 in these experiments indicates disease prevention, e.g., in a human.
Effects of treatments was assessed by comparing the disease-associated phenotypes in glycan-treated, untreated (plain water) and vancomycin-treated groups. FOS is a commercially-available, non-digestible fructooligosaccharide.

[2] = vancomycin PO gavage QD days 0 to 4

For `CN[C@H](CC(C)C)C(=O)N[C@H]1C(=O)N[C@@H](CC(N)=O)C(=O)N[C@H]2C(=O)N[C@H]3C(=O)N[C@H](C(=O)N[C@H](C(=O)O)c4cc(O)cc(O)c4-c4cc3ccc4O)[C@H](O)c3ccc(c(Cl)c3)Oc3cc2cc(c3O[C@@H]2O[C@H](CO)[C@@H](O)[C@H](O)[C@H]2O[C@H]2C[C@](C)(N)[C@H](O)[C@H](C)O2)Oc2ccc(cc2Cl)[C@H]1O` [Vancomycin, vancomycin], which “predicted functional potential of the gut microbiome to convert primary bile acids to secondary bile acids” value (gut microbiota) is on record?
The value was “not observed”.

And the “animal survival versus animals treated with water (vehicle)” value ([1]; Kaplan-Meier, FIG. 10)?
Its value is “significant difference”.

What about the “clinical score of survivors” value ([1]; score 0 to 4, after end of treatment, days 7 to 10/11) of the same compound?
The value was “above 0”.

What about the “animals died by day 10” value [1, 2] of the same compound?
The value was 17%.

And the “animals survived to day 7” value [1, 2]?
Its value is 100%.

And the “clinical signs on day 10” value [1, 2]?
Its value is “exhibited clinical signs”.
